Four molecules from US20240124456A1, “AZA-ERGOLINE DERIVATIVE AND PREPARATION METHOD THEREFOR AND APPLICATION THEREOF” (SHANGHAITECH UNIVERSITY, priority 2021, published 2024) can be followed below.

What is called EC50 is the concentration needed to bring the measured effect to its halfway point. As usually defined, the Emax is the maximal effect, on the per cent scale that the assay sets. As a reminder, the Ki is the equilibrium dissociation constant of an inhibitor or competing ligand from its target. A high value points to lower affinity.

Experiment [1] concerns the target T1, dopamine D2 receptors (Homo sapiens (Human), UniProt P14416). In words: G protein Gαi1-γ9 dissociation BRET, dopamine D2 receptor functional activity. The format is cell-based. As to conditions: for EC50: HEK-293T, I-1 to 19 n=3, I-20 to 27 single determination, read-out: Gai1 BRET EC50; for Emax: relative to the endogenous ligand dopamine, read-out: Gai1 BRET Emax % ± SEM. Background: BRET reads energy transfer from a luciferase to a nearby fluorophore.

The target of the next experiment is 5-HT2A receptor (Homo sapiens (Human), UniProt P28223). Nature of the experiment: Radioligand competition binding, affinity for 5-HT2A receptor ([3H]-ketanserin). As to conditions: for binding selectivity, dopamine D2 receptor versus 5-HT2A receptor: Table 3 compared with Table 1; for Ki: [3H]-ketanserin, HEK-293T membranes. Here is the method:
The affinity of the compounds of the present invention for the 5-HT2A receptors was determined by the method of radioligand competition experiment. In the first step, a cell membrane component containing specific 5-HT2A receptor was prepared. A 10 cm dish was used for transfection with 10 ng of the 5-HT2A receptor and 40 μL of PEI. […] A vacuum pump was used to suck off the culture medium, 3 mL of lysis buffer was added to each well, and the cells were placed in a 4° C. freezer for 10 minutes. After the cells were detached, the cells were transferred to a 15 mL centrifuge tube and centrifuged at 1500 rpm for 5 minutes at 4° C., and the supernatant was discarded. The cell pellet was transferred to a tissue homogenizer, and 3 mL of lysis buffer was added and fully ground until the cells were broken. Then, cell suspension was equally divided into several EP tubes, centrifuged at 4° C. and 12000 rpm for 5 min, and the supernatant was discarded. The precipitate was the cell membrane component containing the 5-HT2A receptor. […] First, a standard binding buffer was added to the cell membrane component containing the 5-HT2A receptor, and the cell membrane was disrupted and resuspended with an electric tissue homogenizer. 30 μL of membrane protein suspension was added to each well of a 96-well plate. Then, 30 μL of different drugs were added to the 96-well plate from left to right to ensure that the final drug concentrations were 10^−5 M, 10^−6 M, 10^−7 M, 10^−8 M, 10^−9 M and 0 M, with two replicates per treatment. Next, 30 μL [^3H]-ketanserin was added to each well of the 96-well plate. The plate was incubated for 2 hours at room temperature in the dark. Detection. The machine reading value reflected the amount of [^3H]-ketanserin bound on the membrane, and after further data processing, the affinity Ki value of different compounds for 5-HT2A receptor was obtained.
(In general: In a radioligand displacement assay an active substance lowers the binding of a labelled ligand.)

In experiment [2] the target is T1, dopamine D2 receptors. Nature of the experiment: β-arrestin2 recruitment BRET, dopamine D2 receptor functional activity. As to conditions: for EC50: HEK-293T, I-1 to 19 n=3, I-20 to 27 single determination, read-out: β-arrestin2 BRET EC50; for Emax: relative to the endogenous ligand dopamine, read-out: β-arrestin2 BRET Emax % ± SEM. Type of experiment: cell-based. On the technique in general: Arrestin recruitment assays detect the binding of arrestin to an activated receptor.

T1 sequence (P14416 whole entry): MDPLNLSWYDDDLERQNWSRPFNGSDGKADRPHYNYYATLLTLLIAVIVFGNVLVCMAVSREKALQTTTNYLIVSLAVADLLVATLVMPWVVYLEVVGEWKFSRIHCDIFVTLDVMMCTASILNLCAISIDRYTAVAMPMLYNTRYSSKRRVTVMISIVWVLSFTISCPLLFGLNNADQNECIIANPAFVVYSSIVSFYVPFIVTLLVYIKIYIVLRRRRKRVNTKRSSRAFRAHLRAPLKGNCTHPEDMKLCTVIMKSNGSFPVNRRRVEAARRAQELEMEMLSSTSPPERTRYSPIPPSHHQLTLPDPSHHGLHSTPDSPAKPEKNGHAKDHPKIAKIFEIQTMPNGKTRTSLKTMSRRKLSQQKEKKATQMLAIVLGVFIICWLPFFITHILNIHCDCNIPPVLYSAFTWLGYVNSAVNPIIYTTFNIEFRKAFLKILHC
Chain of 5-HT2A receptor (P28223 whole entry): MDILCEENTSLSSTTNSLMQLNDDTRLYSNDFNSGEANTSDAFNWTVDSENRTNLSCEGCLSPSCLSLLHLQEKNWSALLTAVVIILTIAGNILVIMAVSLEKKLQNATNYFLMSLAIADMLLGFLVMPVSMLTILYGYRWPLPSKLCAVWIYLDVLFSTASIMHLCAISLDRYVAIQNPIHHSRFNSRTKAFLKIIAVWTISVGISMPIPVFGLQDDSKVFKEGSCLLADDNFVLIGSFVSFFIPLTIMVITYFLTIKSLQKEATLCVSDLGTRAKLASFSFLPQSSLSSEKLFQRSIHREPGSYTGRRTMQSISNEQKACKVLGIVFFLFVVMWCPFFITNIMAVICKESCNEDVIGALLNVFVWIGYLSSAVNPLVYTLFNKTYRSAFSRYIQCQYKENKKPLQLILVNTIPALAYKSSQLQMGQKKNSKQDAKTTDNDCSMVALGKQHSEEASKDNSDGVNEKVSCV

Turning to `O=c1ccc2ccc(OCCCCN3CCN4c5cccc6[nH]cc(c56)CC4C3)cc2[nH]1` (racemic) [Compound I-2, 7-(4(4,6,6a,7,9,10-hexahydro-8H-pyrazino[1,2-a]pyrrolo[4,3,2-de]quinolin-8-yl)butoxy)quinolin-2(1H)-one], at dopamine D2 receptors [1], the EC50 is 14.8 nM and the Emax stood at 101%. Also, at 5-HT2A receptor, the “binding selectivity, dopamine D2 receptor versus 5-HT2A receptor” value (shortened to “binding selectivity”) is given as “more than 100 times” and the Ki was determined as 907 nM. Further, on dopamine D2 receptors [2], the EC50 stood at 49 nM and the Emax stood at 103%.

For the molecule `CN(C)C(=O)N[C@H]1CC[C@H](CCN2CCN3c4cccc5[nH]cc(c45)C[C@@H]3C2)CC1` [(+)-I-10], at dopamine D2 receptors [1], the EC50 amounted to 9.55 nM and the Emax came to 86%. Moreover, at 5-HT2A receptor, the “affinity for 5-HT2A receptor (in words)” value is on record as “very weak affinity” and the affinity corresponds to a Ki of 2480 nM. Further, at dopamine D2 receptors [2], the EC50 was determined as 5.25 nM and the Emax is 90%.

As to `CN(C)C(=O)N[C@H]1CC[C@H](CCN2CCN3c4cccc5[nH]cc(c45)C[C@H]3C2)CC1` [(−)-I-10], at dopamine D2 receptors [1], the EC50 came out at 1.38 nM and the Emax was found to be 78%. For the same molecule, on 5-HT2A receptor, the “affinity for 5-HT2A receptor (in words)” value is given as “very weak affinity”; the “binding selectivity” value is “more than 100 times”; the Ki was determined as 2630 nM. Moreover, at dopamine D2 receptors [2], the EC50 worked out at 2.75 nM and the Emax was 89%.

With `O=C1CCc2ccc(OCCCCN3CCN4c5cccc6[nH]cc(c56)CC4C3)cc2N1` (centres unmarked) [Compound I-1, 7-(4(4,6,6a,7,9,10-hexahydro-8H-pyrazino[1,2-a]pyrrolo[4,3,2-de]quinolin-8-yl)butoxy)-3,4-dihydroquinolin-2(1H)-one], at dopamine D2 receptors [1], the EC50 was found to be 16.2 nM and the Emax is 100%. For the same molecule, on 5-HT2A receptor, the “affinity for 5-HT2A receptor (in words)” value was “very weak affinity”; the “binding selectivity” value is listed as “more than 100 times”; the affinity corresponds to a Ki of 3640 nM. Besides, on dopamine D2 receptors [2], the EC50 stood at 56.2 nM and the Emax was found to be 100%.
